Results taken from patent publication US20210255168A1, “A METHOD OF PRECISION CANCER THERAPY” (KING FAISAL SPECIALIST HOSPITAL & RESEARCH CENTRE, priority 2018, published 2021).

Assays:
[1] = test system: MDA-MB-231, MCF7, and SKBR3 cell lines; assay: mRNA expression in breast cancer cell lines; format: cell-based; settings: MCF7, MDA-MB-231 and SKBR3; most of the cancer cell lines
Experimental: Cells were cultured in six-well plates and either treated with DMSO or drugs for 24 h. Total RNA was then extracted using Trizol reagent (TRI Reagent, Sigma-Aldrich, St Louis, Mo.). The cells were lysed directly on the culture dish by adding 1 ml of the TRI Reagent per 10 cm^2 surface area. Reverse transcription for preparation of cDNA was performed using 3 μg of total RNA, 150 ng random primers, 0.1 M dithiothreitol (DTT), 10 mM deoxynucleotide triphosphate (dNTP) and 200 U of SuperScript II (Invitrogen, Foster City, Calif.). The quantitative RT-QPCR was performed in multiplex in the Chroma 4 DNA Engine cycler (BioRad, Hercules, Calif., USA) using FAM-labelled TaqMan probes (Applied Biosystems, Foster City, Calif., USA) for TTP (ZFP36), HuR (ELAVL1), uPA (PLAU)-CXCR4, MMP-1, MMP-13, IL-8, PLK-1 while a VIC-labelled glyceraldehyde-3-phosphate dehydrogenase (GAPDH) probe was used as the endogenous control. Samples were amplified in triplicate and quantification of relative expression was performed using the estimation of quantitation cycle (Cq) method.
PLK1 kinase, as an example of kinases involved in cancer, is over-expressed in breast cancer cell lines, including MCF7, MDA-MB-231 and SKBR3 when compared to the normal-like MCF10A (FIG. 5A). Many kinases are either over-expressed or constitutively active or hyperactive in cancer states when compared to normal cells. As example of inhibitors that are found in the precision cancer therapy screen, Volasertib and Regorafenib (VEGFR kinase inhibitor) led to reduction in the level of ARE-containing mRNA, uPA in most of the cancer cell lines. (FIG. 5B).
The present inventors further disclose that the effect of PLK-1 inhibition is consistent among different types of breast cancer including triple-negative, […], and ER-PR negative breast cancers, as shown through the actions induced by PLK-1 inhibitor volasertib on MDA-MB-231, MCF7, and SKBR3 cell lines, namely increasing the expression of TTP, decreasing the HuR level, and downregulating the TTP target uPA. […] Accordingly, the present inventor discloses that any protein kinase inhibitor which post-transcriptionally regulates expression of cancer-related genes is suitable for precision cancer therapy. Further disclosed is a method of treatment of cancer comprising administering said protein kinase inhibitor, to a patient in need thereof.

[2] = test system: TNF-α-ARE luciferase reporter in MDA-MB-231 cells; assay: Post-transcriptional ARE luciferase reporter assay (kinase inhibitor library screen); format: cell-based; settings: 0.5, 2 and 5 μM, ARE and non-ARE reporters
[3] = test system: TNF-α-ARE luciferase reporter in MDA-MB-231 cells; assay: as above; format: cell-based; settings: for reduction of ARE-reporter activity (in words): PK inhibitor library
Source text: Reporters were designed to be driven by the ribosomal protein subunit 30 (RPS30) promoter. The promoter was amplified using PCR with primers specific to the flanking region of the RPS30 promoter sequence. The gene structure of RPS30 was obtained from the Ribosomal Protein Database (http://ribosome.med.miyazaki-u.ac.jp). The forward and reverse primers included the restriction sites, EcoR V and SalI sites. Amplified DNA fragments were then resolved in 1.2%-1.5% agarose gel and the amplicon bands were excised, purified and cloned into the promoterless plasmid. TNF-α 3′-UTR and TNF-α ARE were used to study the role of AU-rich elements in the action of PKs inhibitors. The AU-rich sequence that comprised 250 bases from TNF-α 3′UTR (1200-1450 bp, NM_00059) was amplified by PCR using the forward primer 5′-[…]-3′ (SEQ ID NO:1) and the reverse primer 5′-[…]-3′ (SEQ ID NO:2). The TNF-α-ARE sequence was made by annealing two synthetic complementary oligonucleotides of 70 bases that correspond to TNF-α ARE. The control reporter was constructed to have the basic structure of post-transcriptional reporter except 3′UTR which lack the AU-rich element sequence like this of bovine growth hormone. Any ARE reiterations or variations can be used, with minimal sequence is AUUUA, preferably, WW(AUUUA)WW, where W=A or U. They can be also repeated as an overall, e.g., AUUUAUUA, anywhere from 0 to 10 repeats as example.
Selleckchem Kinase Inhibitor Library that includes a selection of 378 pharmacologically active inhibitors of a number of protein kinases was purchased from Selleckchem. (Houston, Tex., USA). This library is a collection of 378 kinase inhibitors some of which have been approved by the FDA. Each compound is provided as a pre-dissolved 10 mM dimethyl sulfoxide (DMSO) solution as a 96 well format tube (100 μL). The compounds were diluted by OPTI-MEM (Thermo Fisher Scientific, Waltham, Mass., USA) to a final concentration of 5 μM.
Post-transcriptional and control reporter constructs were transfected to MDA-MB-231 cells separately that were seeded in 96-well microplates at a density of 4×10^4 cells/well and incubated overnight. Using lipofectamine 2000 protocol (Invitrogen, Carlsbad, Calif., USA), the cells were transfected with 10 ng of either RPS30-luciferase-control 3′UTR or RPS30-luciferase-ARE 3′UTR reporter plasmids. After 24 h, the cells were treated with each member of protein kinase inhibitors kit for 24 h. Then, luciferase reaction was performed as prescribed by manufacture's protocol (Nano-Glo Luciferase, Promega, Madison, Wis., USA)/well. After 15 minutes, the reporters' activities were measured through the measurement of the chemiluminescence (FIG. 8) after treatment using a Zenith 3100 (Anthos Labtec, Eugendorf, Austria).
Data are presented as means±standard error of the mean (SEM). Two-sample Student's t-test was used to determine the differences between two data sets. One-way analysis of variance (ANOVA) was used to compare three or more data columns. Two-way analysis of variance was used to analyze two groups of data, each having two data columns. Analysis was performed using GraphPad Prism version 6.00 for Windows, (GraphPad Software, La Jolla Calif., USA). For high throughput screening (HTS) hit selection (protein kinase inhibitors), strictly standardized mean difference (SSMD) test was used. This statistical test measures the size of effect of each member in a group relative to the other members. It is the mean of each member divided by the standard deviation of the difference between two random values from different groups. Based on the value of SSMD, the effect of each member of the library was classified as strong (β≥5), moderate (1≤β<5), and weak (β<1). In this study, only drug with SSMD score more than or equal to 5 or less than or equal to −5, i.e. strong β, where selected in the primary screening. […]

[4] = target: PLK-3 (Homo sapiens, UniProt Q9H4B4); settings: cited from earlier work
Chain of PLK-3 (Q9H4B4 whole entry, species assumed): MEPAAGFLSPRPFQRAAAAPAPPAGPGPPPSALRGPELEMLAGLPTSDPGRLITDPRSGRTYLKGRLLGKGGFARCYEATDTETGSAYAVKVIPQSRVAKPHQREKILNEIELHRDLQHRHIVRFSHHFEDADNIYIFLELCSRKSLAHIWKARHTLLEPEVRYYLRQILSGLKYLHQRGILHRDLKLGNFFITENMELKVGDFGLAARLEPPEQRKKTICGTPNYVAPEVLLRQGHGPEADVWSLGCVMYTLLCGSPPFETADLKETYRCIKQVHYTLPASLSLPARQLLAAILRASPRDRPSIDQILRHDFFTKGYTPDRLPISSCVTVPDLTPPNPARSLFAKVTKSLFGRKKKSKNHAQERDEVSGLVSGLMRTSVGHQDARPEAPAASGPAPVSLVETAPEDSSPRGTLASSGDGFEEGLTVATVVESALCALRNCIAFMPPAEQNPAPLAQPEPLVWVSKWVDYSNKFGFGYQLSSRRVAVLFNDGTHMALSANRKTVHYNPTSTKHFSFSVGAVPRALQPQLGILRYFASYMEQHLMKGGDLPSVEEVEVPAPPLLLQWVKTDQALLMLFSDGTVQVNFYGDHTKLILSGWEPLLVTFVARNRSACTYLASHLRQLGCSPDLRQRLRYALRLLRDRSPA

[5] = target: PLK-2 (Homo sapiens, UniProt Q9NYY3); settings: cited from earlier work
Chain of PLK-2 (Q9NYY3 whole entry, species assumed): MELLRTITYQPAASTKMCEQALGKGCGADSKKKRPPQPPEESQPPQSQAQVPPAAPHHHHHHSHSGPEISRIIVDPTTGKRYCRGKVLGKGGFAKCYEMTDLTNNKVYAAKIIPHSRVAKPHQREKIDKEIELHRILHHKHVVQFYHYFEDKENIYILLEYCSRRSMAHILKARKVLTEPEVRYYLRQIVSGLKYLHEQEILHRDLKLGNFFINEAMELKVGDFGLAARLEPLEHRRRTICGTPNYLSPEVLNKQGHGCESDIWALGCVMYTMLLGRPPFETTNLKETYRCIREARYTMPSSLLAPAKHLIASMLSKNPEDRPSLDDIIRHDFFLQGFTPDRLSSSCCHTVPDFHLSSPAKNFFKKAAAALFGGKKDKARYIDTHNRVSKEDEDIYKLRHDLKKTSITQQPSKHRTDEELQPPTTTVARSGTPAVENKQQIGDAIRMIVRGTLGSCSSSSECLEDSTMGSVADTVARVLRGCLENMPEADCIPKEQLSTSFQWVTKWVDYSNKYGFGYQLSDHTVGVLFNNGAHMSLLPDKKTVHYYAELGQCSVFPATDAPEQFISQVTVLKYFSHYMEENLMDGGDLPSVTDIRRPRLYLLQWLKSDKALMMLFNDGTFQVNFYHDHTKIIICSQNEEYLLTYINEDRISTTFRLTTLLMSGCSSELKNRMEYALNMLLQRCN

Which “level of ARE-containing mRNA uPA in cancer cell lines” value [1] does the source give for `CNC(=O)c1cc(Oc2ccc(NC(=O)Nc3ccc(Cl)c(C(F)(F)F)c3)c(F)c2)ccn1` [Regorafenib] here?
Its value is “reduction”.

What about the “ARE-dependent mRNA regulation confirmed in later stages of screening compared to a non-ARE reporter” value [2] of the same compound?
The value was “confirmed to be involved in ARE-dependent mRNA regulation”.

For Ro3280, which “reduction of ARE-reporter activity (in words)” value (shortened to “reduction … (in words)”) [3] is on record?
Its value is “did not reduce”.

With `CC[C@@H]1C(=O)N(C)c2cnc(Nc3ccc(C(=O)NC4CCN(C)CC4)cc3OC)nc2N1C1CCCC1` [BI 2536] as the compound, how does the “reduction of TNF-ARE luciferase reporter activity” value ([3]; primary screening, 5 μM) read?
Its value is 35%.

And the “reduction in percent reporter activity in the secondary screening compared to the control reporter” value ([3]; secondary screening, ARE vs non-ARE control reporter)?
The value was 16%.

Which “reduction … (in words)” value [3] does the source give for `C[C@@H](Oc1cc(-n2cnc3ccc(CN4CCN(C)CC4)cc32)sc1C(N)=O)c1ccccc1C(F)(F)F` [GSK461364] here?
Its value is “did not reduce”.

With `COc1ccc(S(=O)(=O)N(C(C)=O)c2ccccc2/C=C/c2cc[n+]([O-])cc2)cc1` [HMN-214] as the compound, how does the “reduction … (in words)” value [3] read?
The value was “did not reduce”.

With `Cc1ccc(NC(=O)c2cccc(C(C)(C)C#N)c2)cc1Nc1ccc2ncn(C)c(=O)c2c1` [AZ628] as the compound, how does the “ARE-dependent mRNA regulation confirmed in later stages of screening compared to a non-ARE reporter” value [2] read?
The value was “confirmed to be involved in ARE-dependent mRNA regulation”.

Which results are given for `COc1cc(OC)c(/C=C/S(=O)(=O)Cc2ccc(OC)c(NCC(=O)O)c2)c(OC)c1` [rigosertib]?
reduction of ARE-reporter activity (in words) [3]: did not reduce; activity on PLK-3 [4]: no activity; selectivity (PLK-1) against PLK-2 [5]: more than 30 fold

For `CN1CCN(c2ccc(OC(F)(F)F)c(Nc3ncc4c(n3)-c3c(c(C(N)=O)nn3CCO)CC4)c2)CC1` [NMS-P937], which “reduction … (in words)” value [3] is on record?
The value was “did not reduce”.
